The experiment concerns CEM cells HIV-1 protection, formazan growth assay. Description: NCI AIDS Antiviral Assay. The conditions noted are these: for IC50: measured here: growth of uninfected CEM cells. In outline: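 Five concentrations of each compound were applied to infected and uninfected human CEM cells. Protection from HIV-1 was judged from growth measured with a soluble formazan assay.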

Molecules are shown by their SMILES. Where “and” joins values, the source holds several entries; their conditions need not be identical. Identical values can stand only once. Calls of active or inactive are those of the source.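 How the source made its calls: active means compounds giving half or more protection of infected cells from virus-caused growth loss, again on retest; inactive means the rest.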 Where a SMILES comes first, the peptide text is derived from it. [ ]: non-standard residue; d: D form. Phe(4-NO2) = N[CH](Cc1ccc([N+](=O)[O-])cc1)C(=O)O

`O=c1c2cc(-c3ccccc3)sc2nc2n1N=C(c1ccccc1)CS2`: the EC50 (usually the concentration at which the effect is half-maximal) was more than 200 µM and the IC50 (in general, the concentration that inhibits the measured activity by half) is more than 200 µM.
Consider `O=C1NC(=O)C(CCN2CCCCC2)(c2ccccc2)C(=O)N1`, for which the EC50 is more than 200 µM and the concentration for half-maximal inhibition (IC50) is more than 200 µM.
Turning to `C/C(=N\Nc1ccc2ccccc2n1)c1ccccc1O`, the half-maximal effective concentration (EC50) was more than 200 µM and the IC50 turned out to be 6.46 µM.
On to `CCN(CC)OC(=O)/C=C/c1ccccc1`, for which the outcome was inactive.
For the compound `CN(C)CCNc1ccc2c(=O)n(CCN(C)C)c(=O)n3c4ccccc4c(=O)c1c23`, the EC50 is more than 0.1 µM and the 50% inhibitory concentration (IC50) turned out to be 0.00933 µM.
On the same counts, the results for `N#CCCC[P+](c1ccccc1)(c1ccccc1)c1ccccc1` are more than 200 µM and more than 200 µM.
For `c1ccc2c3c([nH]c2c1)C1c2[nH]c4ccccc4c2CCN1CC3`, the EC50 was more than 200 µM and the IC50 stood at 11 µM.
Regarding `Nc1ncc(Cl)c(NCC2(CO)CC(CCc3ccccc3)C2)n1` (configuration not stated), the EC50 was more than 200 µM and the 50% inhibitory concentration (IC50) was 3.24 µM.
The corresponding values for `COc1ccc(N=Nc2c(C)c(C#N)c(=S)n(C3OC(CO)C(O)C(O)C3O)c2C)cc1` (configuration not stated) are more than 200 µM and 27.5 µM.
On the same counts, the results for `N#Cc1c(-c2ccc(Cl)cc2)c(C#N)c(=O)n(NS(=O)(=O)c2ccccc2)c1S` are more than 200 µM and 17 µM.
Turning to `CO[C@@H]1/C=C\C=C(/C)C(=O)NC2=CC(=O)C(NCCN(C)C)=C(C[C@@H](C)C[C@@H](OC)[C@@H](O)[C@H](C)/C=C(\C)[C@H]1OC(N)=O)C2=O`, the EC50 is more than 2 µM and the IC50 turned out to be 0.102 µM.
The corresponding values for `O=C(Nc1cc2c(oc1=O)CCCCC2)c1ccccc1` are more than 200 µM and more than 200 µM.
Consider `Cc1ccc(S(=O)(=O)Nc2ccccc2C(C)(C)C)cc1`, for which the outcome was inactive.
Turning to `Cc1ccc(NC(=O)CC(=O)n2nc(C)c(N=Nc3cccc(C)c3)c2C)cc1`, the EC50 was more than 200 µM and the half-maximal inhibitory concentration (IC50) is more than 200 µM.
As for `CN(C)C(=S)/N=c1\ssc(=Nc2ccccc2)n1C`, the outcome was inactive.
Same read-out and setting: the value for `NS(=O)(=O)c1ccc(N=NC2Sc3nc4ccccc4n3C2=O)cc1` (configuration not stated) was “inactive”.
Regarding `Cc1ccc(-n2c(=S)[nH]c3ccc(C)cc3c2=O)cc1`, the EC50 was more than 25.7 µM and the IC50 is more than 25.7 µM.
In the case of `O=C1C2C3C=C4c5ccccc5N(c5ccccc5)C4(C2C(=O)N1c1ccc(Br)cc1)[C@H]1C(=O)N(c2ccc(Br)cc2)C(=O)[C@@H]31` (some centres not stated), the EC50 is more than 5.25 µM and the IC50 was more than 5.25 µM.
In the case of `C[Si]1(C)[Si](C)(C)[Si](C)(C)[Si](C)(C)[Si](C)(C)[Si]1(C)C`, the EC50 was more than 28.8 µM and the IC50 was more than 28.8 µM.
For the compound `COC(=O)C1(CC(=O)OCc2ccccc2)NCCc2c1[nH]c1ccccc21` (configuration not stated), the EC50 was more than 3.31 µM and the IC50 is more than 3.31 µM.
On to `CCOC(=O)C(Cc1cc(OC)c(CC(C(=O)OCC)C(=O)OCC)cc1OC)C(=O)OCC`, for which the result was inactive.
With `O=c1ccn(C2CC(CO)C(CO)C2)c(=O)[nH]1` (configuration not stated), the EC50 is more than 105 µM and the IC50 is more than 105 µM.
`CCOC(OCC)c1ccccc1.[C-]#[O+].[C-]#[O+].[C-]#[O+].[Cr]`: the EC50 was more than 20 µM and the IC50 worked out at 2.04 µM.
The corresponding values for `CC(C)Cc1cccc(C(C)C)c1NC(=O)CCC(=O)N/N=C1\C(=N/NC(=O)CCC(=O)Nc2c(C(C)C)cccc2C(C)C)C(c2ccc3c(c2)OCO3)Oc2ccccc21` (configuration not stated) are more than 112 µM and 81.3 µM.
With `COc1ccc2c(c1)CC1=C(O2)c2ccc(OC)cc2OC1`, the EC50 was more than 200 µM and the IC50 was found to be 10.2 µM.
The corresponding values for `O=C(O)c1ccccc1/C=N/NC1=NCCCCN1` are more than 200 µM and 141 µM.
As to `CC(=O)OCC1OC(N2C(S)=C(C#N)C(c3ccco3)C(C(C)=O)=C2c2ccccc2)C(OC(C)=O)C(OC(C)=O)C1OC(C)=O` (configuration not stated), the EC50 is 95.5 µM and the IC50 was more than 200 µM.
Regarding `CCN(CC)CCOc1ccc(N2C(=O)c3cccc4cc([N+](=O)[O-])cc(c34)C2=O)cc1`, the EC50 is more than 200 µM and the half-inhibitory concentration (IC50) came to 2.45 µM.
On the same counts, the results for `Cc1cc(OCC(=O)N/N=C/C(Br)=C/c2ccccc2)nc(SCC(=O)N/N=C/C(Br)=C/c2ccccc2)n1` are more than 200 µM and 17.8 µM.
On the same counts, the results for `COc1ccc2c(c1)-c1nc(=O)n(CCCN(C)C)c3ccc([N+](=O)[O-])c(c13)N2` are more than 1 µM and 0.355 µM.
On the same counts, the results for `Cc1csc(NNC(N)=O)n1` are more than 200 µM and more than 200 µM.
Turning to `O/N=C1/C(=C/c2ccc(Oc3ccccc3)cc2)CCCC1C(NO)c1ccc(Oc2ccccc2)cc1` (configuration not stated), the EC50 was more than 10.2 µM and the half-maximal inhibitory concentration (IC50) is more than 10.2 µM.
Take `O=S(=O)(C=C=CCO)c1ccccc1`: the outcome was inactive.
As to `CC(C)CCCC(C)[C@H]1CCC(C2C[C@@H](O)[C@@H]3CC(O)[C@@H](O)C[C@]3(CO)C2=O)[C@]1(C)CCO` (some centres not stated), the EC50 is more than 200 µM and the 50% inhibitory concentration (IC50) was determined as 34.7 µM.
Take `O=[N+]([O-])c1ccc(CSc2nncc3[nH]cnc23)cc1`: the EC50 was 31.6 µM and the IC50 is 63.1 µM.
The corresponding values for `CCOC(=O)C(NC(=O)CC(C)C)(Nc1ccc(S(=O)(=O)Nc2nc(C)cc(C)n2)cc1)C(F)(F)F` (configuration not stated) are more than 200 µM and more than 200 µM.
The corresponding values for `CCCCN1CC(=O)N2CCCC(c3ccccc3)N2C(=O)C1` (configuration not stated) are more than 794 µM and 347 µM.
In the case of `O=c1[nH]c(=O)n(C2OC(CO)CC2F)cc1Cl` (configuration not stated), the EC50 was more than 186 µM and the IC50 was more than 186 µM.
With `N#Cc1sc2nc(/C=C3/C=CC=CC3=O)c(O)n2c1N`, the EC50 is more than 200 µM and the IC50 is 93.3 µM.
On to `O=C(O)c1c2c(nc3ccccc13)CCC2`, for which the EC50 is more than 447 µM and the concentration for half-maximal inhibition (IC50) was more than 447 µM.
On to `Cc1cccc(N=Cc2ccc(N(CCC#N)S(=O)(=O)c3ccccc3)cc2C)c1`, for which the EC50 is more than 224 µM and the 50% inhibitory concentration (IC50) worked out at 145 µM.
On the same counts, the results for `CC(=O)[O-].Cc1ccnc(NS(=O)(=O)c2ccc(N=Cc3ccccc3[O-])cc2)n1.Cc1ccnc(NS(=O)(=O)c2ccc(N=Cc3ccccc3[O-])cc2)n1.[Cu+2]` are more than 200 µM and 5.62 µM.
`Cc1ccc(Nc2nc(N)nc(N)c2N=O)cc1C`: the EC50 was more than 200 µM and the IC50 is more than 200 µM.
Regarding `CCC1(Br)OC1=O` (configuration not stated), the EC50 is more than 200 µM and the IC50 turned out to be 107 µM.
On the same counts, the results for `COc1ccccc1N1C(=O)CSC1c1c[nH]c2ccccc12` (configuration not stated) are more than 288 µM and 186 µM.
The corresponding values for `CC(C)CN(CC(C)C)C(=O)C(Br)C(Br)C(=O)O` (configuration not stated) are more than 200 µM and 91.2 µM.
On the same counts, the results for `N#Cc1c(N2CCC(O)C2)c2ccccc2n2c1nc1ccccc12` (configuration not stated) are more than 50.1 µM and more than 50.1 µM.
In the case of `Cn1c(=O)nc2n(CCO)c(-c3ccccc3)c(-c3ccccc3)nc-2c1=O`, the EC50 is more than 200 µM and the IC50 is more than 200 µM.
On to `O=C1NN2CCN=C2c2cnccc21`, for which the EC50 is more than 1320 µM and the IC50 was more than 1320 µM.
As to `CSc1nc2c(n1-c1ccccc1)C(=O)C(OS(=O)(=O)c1ccccc1)C(=O)N2` (configuration not stated), the EC50 is more than 200 µM and the IC50 is more than 200 µM.
For `CCCCCCCCCCCCCCCCOC[C@@H](COC1OC(CO)C(O)C(O)C1O)OCCCCCCCCCCCCCCCC` (some centres not stated), the EC50 is more than 4.07 µM and the IC50 is more than 4.07 µM.
For `O=C(Nc1ccc(Cl)cc1Cl)/C(Cl)=C1/Sc2ccccc2NC1=O`, the EC50 was more than 6.76 µM and the half-maximal inhibitory concentration (IC50) is more than 6.76 µM.
For the compound `COc1ccc(C2OC(=O)c3ccc4ccccc4c32)c(C)c1` (configuration not stated), the EC50 was more than 44.7 µM and the IC50 is 24.5 µM.
The corresponding values for `Cn1c(=O)c(C#N)c2n(c1=S)CCCCCCC2` are more than 200 µM and 112 µM.
With `O=C(Nc1ccc2c(O)c(N=Nc3ccccc3)c(S(=O)(=O)O)cc2c1)Nc1ccc2c(O)c(N=Nc3ccccc3)c(S(=O)(=O)O)cc2c1`, the EC50 turned out to be 40.7 µM; the IC50 is 50.1 µM and 191 µM.
`CC(=O)O[C@H]1CC[C@]2(C)C3=CC[C@]4(C)[C@@H](C(C)=O)CC[C@H]4[C@@]34C=C[C@]2(C1)C1C(=O)OC(=O)C14` (some centres not stated): the EC50 is more than 200 µM and the half-maximal inhibitory concentration (IC50) came out at 70.8 µM.
On the same counts, the results for `Cc1csc(=Nc2ccccc2)n1CCC(O)(P(=O)(O)O)P(=O)(O)O` are more than 200 µM and 9.55 µM.
On the same counts, the results for `CN(C)CCC(O)(c1ccccc1)C(O)(CCN(C)C)c1ccccc1` (configuration not stated) are more than 72.4 µM and more than 72.4 µM.
On the same counts, the results for `C/C(CC(O)(C(F)(F)F)C(F)(F)F)=N\NC(N)=S` are more than 200 µM and more than 200 µM.
Consider `COC(=O)CCC(NC(=O)C(CCC(=O)OC)NC(=O)C(CCC(=O)OC)NC(=O)C(CCC(=O)OC)NC(=O)C(CCC(=O)OC)NC(=O)C(Cc1ccc([N+](=O)[O-])cc1)NC(=O)C(CCC(=O)OC)NC(=O)C(CCC(=O)OC)NC(=O)C(CCC(=O)OC)NC(=O)C(CCC(=O)OC)NC(=O)C(CCC(=O)OC)NC(C)=O)C(N)=O` (configuration not stated) (Ac-E(OMe)E(OMe)E(OMe)E(OMe)E(OMe)[Phe(4-NO2)]E(OMe)E(OMe)E(OMe)E(OMe)E(OMe)-NH2; configuration not given here), for which the EC50 was more than 100 µM and the IC50 was more than 100 µM.
In the case of `COC1OC(C(C)O)C2OC(C)(C)OC12` (configuration not stated), the EC50 is more than 200 µM and the IC50 is more than 200 µM.
Take `COC(=O)C1=C(OC(C)=O)c2ccccc2CS1`: the EC50 was more than 135 µM and the 50% inhibitory concentration (IC50) amounted to 123 µM.
The corresponding values for `c1ccc(COc2ccc(C[P+](c3ccccc3)(c3ccccc3)c3ccccc3)cc2)cc1` are more than 20 µM and 0.324 µM.
Consider `CCNCCNC(=O)c1ccc(I)cc1`, for which the result was inactive.
As for `O=C(O)Cc1cc(=O)oc2c1ccc1ccccc12`, the EC50 is more than 200 µM and the IC50 came to 135 µM.
On the same counts, the results for `COc1ccc(Cc2cc(N=O)c(C)cc2O)cc1` are more than 200 µM and 12.6 µM.
The corresponding values for `CCN(CCN(CC)C(=O)Nc1ccccc1)C(=O)Nc1ccccc1` are more than 200 µM and more than 200 µM.

The values are drawn from PubChem BioAssay AID179 (DTP/NCI, 2004).
